Test results taken from patent publication US20070212426A1, “Composition and method of retarding viral activity and reducing viral replication” (priority 2006, published 2007).
Like-named read-outs stand apart in the source and are kept apart here.

Columns and labels:
[1] = tested on: Influenza Virus A's Neuraminidase; test: Neuraminidase activity of cell-free virus, 4-methylumbelliferyl N-acetylneuramic acid substrate
Description: The method of these experiments are well known in the art, however, in brief, cell free virus are mixed with an equal volume of the composition in Table 1 or Ascorbic Acid in another, at various concentrations, and any inhibitory activity is observed at various time points after the mixture. Spectrophotometer assay for Neuraminidase has been established in the laboratory at using 4-methylumbelliferyl N-acetylneuramic acid as a substrate in the cell free system.

[2] = tested on: human influenza A virus (VR-1520); type: cell-based; conditions: for output of Antigen to the control's output: Vero cells, control 245 Antigen units/ml

Compound: O=C1O[C@H]([C@@H](O)CO)C(O)=C1O [ascorbic acid]
- Neuraminidase activity to the control's ([1]; 1000 microgram/ml): 90%
- Neuraminidase activity to the control's ([1]; 2000 microgram/ml): 85%
- Neuraminidase activity to the control's ([1]; 3000 microgram/ml): 80%
- output of Antigen to the control's output ([2]; 50 micromoles): 35%
- output of Antigen to the control's output ([2]; 100 micromoles): 45%
- output of Antigen to the control's output ([2]; 250 micromoles): 41%
- Influenza A virus antigen production in Vero cells (figure legend) ([2]; various concentrations, serum-free medium): marginal decrease
